Tests used:
crabgrass = test: field-grown crabgrass treated with CO2 prototype with insulating cone, percent control; assay type: in vivo; details: for % control: insulated prototype, 0.15 lbs CO2
Description: (§1) Greenhouse-grown crabgrass plants were treated with the prototype containing either an 8002 flat fan nozzle (which was measured to release 2 pounds of CO2 per minute) or with an 8004 flat fan nozzle (which releases 4 pounds of CO2 per minute), to determine if the rate of application affects the percent control achieved. Control means killing or death of the plants as determined by visual observation. The percent control is a visual rating of the treated plant compared to an untreated control plant. In other words, it is the percent of plant death. Trials were conducted in triplicate.
(§2) Most commercial herbicides achieve 80% control or better. The prototype used 2 pounds of CO2 to achieve this level of control for one 6″ plant. At the 2 lb/plant dispensing rate, a commercial 25-lb cylinder of CO2 would only treat 10 plants; clearly efficiency increases were needed to create a viable backpack sprayer system. An insulating cone was attached around the nozzle with the expectation of possibly achieving a modest increase in efficiency, perhaps cutting the CO2 requirement by 20-50%.
Unexpectedly, a greater than ten-fold reduction in the CO2 usage was achieved (Table 1). The results are especially remarkable since field-grown plants (treated with the insulated design) are usually harder to kill than greenhouse-grown plants that were treated with the non-insulated design.

large crabgrass = test: greenhouse-grown crabgrass treated with non-insulated CO2 prototype, visual percent control; assay type: in vivo; details: for % control: 2 lbs CO2; for percent control: 2-3 tiller greenhouse-grown, seven days after treatment (FIG. 2)
Description: as §1
Similarly, treatment for 15 seconds with the 2 lb/min nozzle results in 17 percent control with 0.5 pounds of CO2 dispensed, while treatment with the 4 lb/min nozzle for 5 seconds results in 12 percent control with 0.3 pounds of CO2 dispensed. From this study, it was concluded that for crabgrass, the total amount (dose) of CO2 applied correlates with % control. See FIG. 4, which graphs % control vs. CO2 dose with two different application rates.
In the data presented in FIG. 3, the crabgrass plants are larger. They are at the 3-4 tiller stage, whereas the plants in the data presented in FIG. 2 were 2-3 tiller plants. The CO2 application controlled both plant sizes well, and with the larger plants the same trend of percent control corresponding to the total pounds of CO2 applied was observed. In both cases the LD50 is over 1 pound CO2/plant.
as §2

For `O=C=O` [CO2, carbon dioxide], the “% control” value (crabgrass; 2-3 tiller field) was 80+ %, the “% control” value (crabgrass; 2-3 tiller field, listed as carbon dioxide) was ≥ 80% and the “% control” value (crabgrass; 3-4 tiller field) was 80+ %. For the same molecule, the “% control” value (crabgrass; 3-4 tiller field, listed as carbon dioxide) was ≥ 80%, the “LD50 (lethal dose to 50% of plants)” value (crabgrass; with insulated cone) was “less than 0.2 lbs/CO2 per plant” and the “% control” value (large crabgrass; 2-3 tiller greenhouse, non-insulated prototype) was 75%. The LD50 (large crabgrass; 2-3 tiller plants, non-insulated prototype) was “over 1 pound CO2/plant”, the percent control (large crabgrass; 2 lb/min nozzle, 15 seconds, 0.5 pounds of CO2 dispensed) was 17% and the percent control (large crabgrass; 2 lb/min nozzle, 30 seconds, one pound of CO2 dispensed) was 40%. The “% control” value (large crabgrass; 3-4 tiller greenhouse, non-insulated prototype) was 87%, the LD50 (large crabgrass; 3-4 tiller plants, non-insulated prototype) was “over 1 pound CO2/plant” and the percent control (large crabgrass; 4 lb/min nozzle, 5 seconds, 0.3 pounds of CO2 dispensed) was 12%. For the same molecule, the percent control (large crabgrass; 4 lb/min nozzle, 15 seconds, one pound of CO2 dispensed) was 42%, the “amount of CO2 used to achieve 80% control or better” value (large crabgrass; non-insulated prototype, one 6″ plant) was 2 pounds and the “LD50 (lethal dose to 50% of plants)” value (large crabgrass; without insulated cone) was 2 pounds of CO2 per plant.

— US8927459B2, “Vegetation treatment” (Arctic, Inc., priority 2008, dated 2015)
